For 3 compounds, IC50, inhibition and inhibition in vivo results are on record in ChEMBL document CHEMBL4270500, “From the hive: Honey, a novel weapon against cancer” (Eur J Med Chem, 2017).

Broadly, the IC50 is the concentration at which inhibition is half-maximal. For orientation: inhibition means how much of the control response was suppressed. Low values mean a weak effect, high ones a strong effect.

A short description of assay [1]: Cytotoxicity in human SP6.5 cells assessed as reduction in cell viability incubated for 48 hrs by MTT assay. Type of assay: functional, cell-based. (In general: Formazan colour is commonly taken as a measure of viable cells.)
Another assay relates to KYSE-510. As to the kind of experiment: Cytotoxicity in human KYSE-510 cells assessed as reduction in cell viability incubated for 24 to 72 hrs by MTT assay. Type of assay: functional, cell-based.
In a further assay the test system is HeLa. As to the kind of experiment: Cytotoxicity in human HeLa cells assessed as reduction in cell viability incubated for 24 to 72 hrs by MTT assay. Type of assay: functional, cell-based.
The nature of assay [2]: Cytotoxicity in human M17 cells assessed as reduction in cell viability incubated for 48 hrs by MTT assay. Type of assay: functional, cell-based.
The subject of the next assay is Caco-2. As to the kind of experiment: Inhibition of cell proliferation of human Caco2 cells at 1500 umol/L incubated for 1 to 3 days by trypan blue dye based hemocytometry relative to untreated control. Type of assay: functional.
Assay [3] has as its system Ehrlich. Kind of assay: Antitumour activity against mouse EAC implanted in BALB/c mouse assessed as inhibition of tumor growth at 100 mg/kg, ip dosed consecutively from day 1 to 9 relative to untreated control. Type of assay: functional. The following applies: 24 h, read-out: TGI.
In assay [4] the test system is Ehrlich. As to the kind of experiment: Antitumour activity against mouse EAC implanted in BALB/c mouse assessed as inhibition of solid tumor growth at 100 mg/kg, ip dosed consecutively from day 1 to 9 relative to untreated control. Type of assay: functional. The following applies: 24 h, read-out: TGI.

Structures are written as SMILES.

In the case of `O=c1cc(-c2ccccc2)oc2cc(O)cc(O)c12` [CHRYSIN], the IC50 in assay [1] was 28.3 µM; with KYSE-510, 63 µM; with HeLa, 14.2 µM; in assay [2], 35.8 µM.
`O=C(O)/C=C/c1ccc(O)cc1` [COUMARIC ACID]: in the assay on Caco-2, the inhibition at 1500 µM lay within 43 to 75%.
In the case of `C=CCc1ccc(O)c(OC)c1` [EUGENOL], the inhibition in vivo at 100 mg/kg was determined as 28.9% with Ehrlich [3] and 24.4% in the assay with Ehrlich [4].
